# Measured values published in patent US8507409B2, “Synergistic combination of a glyphosate compound and DMITS” (Dow Global Technologies LLC, priority 2010, dated 2013).
# Assays:
# Type in all cases: cell-based
# [1] = system: Trentepohlia aurea, Tretepohlia odorata, and Calotrix parientina; test: Algal efficacy, dry paint film (Modified ASTM 5589), Cp + To + Ta pool; details: Cal-Tre; for Total conc in pppm: minimum inhibitory concentration chosen for SI calculation, NE=no end point
# Description: (§1) Each sample was tested in duplicate.
# (§2) In this synergy study, three pool of mixed algae were prepared as the test inoculum, Gloeocapsa sp. and Oscillatoria sp. a mix of cyanobacteria grown on BG-11 media; Chlorella sp., Chlorella kessleri, and Nostoc commune are unicellular chlorphytes that were mixed and grown on Bold media; Trentepohlia aurea, Tretepohlia odorata, and Calotrix parientina are filamentous algae that were mixed and grown on Bold media.
# (§3) The plates were incubated at room temp (25° C.-26° C.) with cyclic exposure to light (OTT-Lite model # OTL4012P, 40 Watt, 26KLumen) and dark phases, for a period of four weeks. The total area covered was evaluated at the end of each week according to percent area covered in 5% increments.
# (§4) The SI is calculated based on F. C.
# (§5) SI value of <1 in the formula indicates a synergism of the blended biocides exists.
# (§6) NE=no end point at the concentration tested that will meet the percent inhibition criteria set in each SI calculation.
# [2] = system: Aspergillus niger mixed with Penicillium funiculosum; test: Fungal efficacy, dry paint film (Modified ASTM 5590), An + Pf pool; details: for Total conc in pppm: minimum inhibitory concentration chosen for SI calculation, total actives in paint
# Description: as §1, §4, §5, §6
# [3] = system: Chlorella sp., Chlorella kessleri, and Nostoc commune; test: Algal efficacy, dry paint film (Modified ASTM 5589), Cs + Ck + Nc pool; details: Ch-No; for Total conc in pppm: minimum inhibitory concentration chosen for SI calculation, total actives in paint
# Description: as §1, §2, §3, §4, §5, §6
# [4] = system: Gloeocapsa sp. and Oscillatoria sp.; test: Algal efficacy, dry paint film (Modified ASTM 5589), Gs + Os pool; details: Os-Gl; for Total conc in pppm: minimum inhibitory concentration chosen for SI calculation, total actives in paint
# Description: as §1, §2, §3, §4, §5, §6
# [5] = at the total conc listed for the same ratio
Compound,"% Inhibition [1, 5] [%]",Total conc in pppm [1] [pppm],"% Inhibition [2, 5] [%]",Total conc in pppm [2] [pppm],"% Inhibition [3, 5] [%]",Total conc in pppm [3] [pppm],"% Inhibition [4, 5] [%]",Total conc in pppm [4] [pppm]
"Cc1ccc(S(=O)(=O)C(I)I)cc1 [DMITS, diiodomethyl-p-tolylsulfone]",20,3300,80,825,80,2475,20,3300
zinc glyphosate,,412.5,,412.5,,412.5,,412.5
